Values belong to the substance of their own block, whether it stands above or below them.
What was measured:
(GR)10 [1] = assay: Cleavage of (GR)10 by enzymes in solution (PBS with CaCl2 and MgCl2), LC/MS of GR repeats; type: biochemical; settings: (GR)10 50 μM
Procedure: • (GR)10 dipeptide (also (GR)8, (GR)6, (GR)4, (GR)2) were synthetized by solid-phase synthesis by CanPeptide; All peptides are uncapped and supplied lyophilized with TFA as counter ions. Purity was always above 95%. • Buffer: PBS buffer containing CaCl2 and MgCl2. • Stock solution of enzyme (e.g., 10 mg/mL) (prepared per manufacturer instructions) in PBS. Activators added as necessary. • Working solution of protein of the desired concentration (e.g., 100 μg/mL) prepared immediately before use by diluting the stock solution (e.g., 5 μL of 10 mg/mL stock solution) in PBS buffer (e.g., in 495 μL of PBS). Exemplary Procedure Using 50 μM Concentrations of (GR)10
25 μL of a 100 μM solution of (GR)10 was added to each well of a 96-well plate. 25 μL of a solution of enzyme (two times the desired final enzyme concentration) was added, and the plates were incubated at room temperature. At the specified time points (5 minutes, 10 minutes, 30 minutes, 60 minutes, and 180 minutes) 2.5 μL of a 10% TFA solution were added to stop the reaction. For the time 0 min well, the TFA was added to the well before addition of the enzyme. After last time point, all samples were further diluted with 150 μL of dilution solution. The quenched reaction mixtures were analyzed by LC/MS to determine the concentration of GR repeats of different lengths.
The chromatography and mass spectrometry conditions utilized are shown in Table 2 and Table 3, respectively.

iCell® motor neurons = assay: Toxicity of (GR)10, untreated or protease-treated, on iCell motor neurons; type: cell-based; settings: (GR)10 concentrations of 25, 50 and 100 μM
Procedure: 200 μM of (GR)10 were diluted in human cerebrospinal fluid (CSF) and 400 μL were applied to each immobilized proteases. The reaction was incubated 5 minutes at room temperature with end-to-end mixing. Columns were spun down 1 minute at 1,000 Xg to recover digested GR dipeptides. Columns were washed with 12 resin volumes of PBS. The procedure was repeated with 60 minutes digestion time. 100 μL of each samples were transferred to a clean tube, flash-frozen and subsequently used for LC/MS quantification of GR repeats of different lengths. The remaining 300 μL of each samples were flash-frozen and used to assess neuron toxicity.
300 μL of CSF were applied to each immobilized proteases and incubated 60 minutes at room temperature with end-to-end mixing. Columns were spun down 1 minute at 1,000 Xg to recover treated CSF. Samples were flash-frozen and subsequently used to test neuron toxicity.
This example describes the reduced toxicity of (GR)10 on in vitro neuronal cells by digestion of (GR)10 with proteases.

(GR)10 [2] = assay: (GR)10 digestion by immobilized proteases stored at 4° C. for over 2 months; type: biochemical; settings: 200 μM (GR)10 in PBS, 5 or 60 minute treatment, FIGS. 8C, 8D
Procedure: (GR)10 was prepared in water to a stock concentration of 10 mM then diluted to a concentration of 200 μM in PBS with Ca^2+ and Mg^2+. (GR)10 samples were then treated with agarose resins having immobilized trypsin or elastase, PBS alone, or agarose resin alone, for 5 minutes or 60 minutes at room temperature. Resins were prepared by a routine method as commonly used by persons of ordinary skill in the art (e.g., the binding reaction described in the POROS™ 20 AL, EP and OH Perfusion Chromatography Bulk Media for Activated Affinity Chromatography Product Information Sheet, ThermoFisher Scientific, Waltham, Mass., Pub. No. 8-0031-40-0993, Rev. C., (incorporated herein by reference in its entirety)) and stored at 4° C. for over 2 months.
50 μl of treated samples were prepared for LC/MS analysis by adding 2.5 μl of 10% trifluoroacetic acid to each sample and 150 μl of dilution solution (0.5% formic acid in ACN/MeOH [50:50]).

- (GR)1 concentration ((GR)10 [1]; enzyme 2.5 μg/mL, 0 min): BLQ
- (GR)2 concentration ((GR)10 [1]; enzyme 2.5 μg/mL, 0 min): BLQ
- (GR)4 concentration ((GR)10 [1]; enzyme 2.5 μg/mL, 0 min): 0.1 µM
- (GR)6 concentration ((GR)10 [1]; enzyme 2.5 μg/mL, 0 min): 0.1 µM
- (GR)8 concentration ((GR)10 [1]; enzyme 2.5 μg/mL, 0 min): 1.1 µM
- (GR)10 concentration ((GR)10 [1]; enzyme 2.5 μg/mL, 0 min): 37.7 µM
- (GR)1 concentration ((GR)10 [1]; enzyme 2.5 μg/mL, 5 min): BLQ
- (GR)2 concentration ((GR)10 [1]; enzyme 2.5 μg/mL, 5 min): BLQ
- (GR)4 concentration ((GR)10 [1]; enzyme 2.5 μg/mL, 5 min): 0.1 µM
- (GR)6 concentration ((GR)10 [1]; enzyme 2.5 μg/mL, 5 min): 0.1 µM
- (GR)8 concentration ((GR)10 [1]; enzyme 2.5 μg/mL, 5 min): 1.5 µM
- (GR)10 concentration ((GR)10 [1]; enzyme 2.5 μg/mL, 5 min): 42.9 µM
- (GR)1 concentration ((GR)10 [1]; enzyme 2.5 μg/mL, 10 min): BLQ
- (GR)2 concentration ((GR)10 [1]; enzyme 2.5 μg/mL, 10 min): BLQ
- (GR)4 concentration ((GR)10 [1]; enzyme 2.5 μg/mL, 10 min): 0.1 µM
- (GR)6 concentration ((GR)10 [1]; enzyme 2.5 μg/mL, 10 min): BLQ
- (GR)8 concentration ((GR)10 [1]; enzyme 2.5 μg/mL, 10 min): 1.4 µM
- (GR)10 concentration ((GR)10 [1]; enzyme 2.5 μg/mL, 10 min): 46.7 µM
- (GR)1 concentration ((GR)10 [1]; enzyme 2.5 μg/mL, 30 min): BLQ
- (GR)2 concentration ((GR)10 [1]; enzyme 2.5 μg/mL, 30 min): 0.1 µM
- (GR)4 concentration ((GR)10 [1]; enzyme 2.5 μg/mL, 30 min): 0.2 µM
- (GR)6 concentration ((GR)10 [1]; enzyme 2.5 μg/mL, 30 min): 0.1 µM
- (GR)8 concentration ((GR)10 [1]; enzyme 2.5 μg/mL, 30 min): 1.3 µM
- (GR)10 concentration ((GR)10 [1]; enzyme 2.5 μg/mL, 30 min): 49.1 µM
- (GR)1 concentration ((GR)10 [1]; enzyme 2.5 μg/mL, 60 min): 0.1 µM
- (GR)2 concentration ((GR)10 [1]; enzyme 2.5 μg/mL, 60 min): 0.2 µM
- (GR)4 concentration ((GR)10 [1]; enzyme 2.5 μg/mL, 60 min): 0.3 µM
- (GR)6 concentration ((GR)10 [1]; enzyme 2.5 μg/mL, 60 min): 0.1 µM
- (GR)8 concentration ((GR)10 [1]; enzyme 2.5 μg/mL, 60 min): 1.1 µM
- (GR)10 concentration ((GR)10 [1]; enzyme 2.5 μg/mL, 60 min): 56.2 µM
- (GR)1 concentration ((GR)10 [1]; enzyme 2.5 μg/mL, 120 min): 0.2 µM
- (GR)2 concentration ((GR)10 [1]; enzyme 2.5 μg/mL, 120 min): 0.2 µM
- (GR)4 concentration ((GR)10 [1]; enzyme 2.5 μg/mL, 120 min): 0.4 µM
- (GR)6 concentration ((GR)10 [1]; enzyme 2.5 μg/mL, 120 min): 0.3 µM
- (GR)8 concentration ((GR)10 [1]; enzyme 2.5 μg/mL, 120 min): BLQ
- (GR)10 concentration ((GR)10 [1]; enzyme 2.5 μg/mL, 120 min): 45.3 µM
- (GR)1 concentration ((GR)10 [1]; enzyme 10 μg/mL, 0 min): BLQ
- (GR)2 concentration ((GR)10 [1]; enzyme 10 μg/mL, 0 min): BLQ
- (GR)4 concentration ((GR)10 [1]; enzyme 10 μg/mL, 0 min): 0.1 µM
- (GR)6 concentration ((GR)10 [1]; enzyme 10 μg/mL, 0 min): BLQ
- (GR)8 concentration ((GR)10 [1]; enzyme 10 μg/mL, 0 min): 1.3 µM
- (GR)10 concentration ((GR)10 [1]; enzyme 10 μg/mL, 0 min): 52.0 µM
- (GR)1 concentration ((GR)10 [1]; enzyme 10 μg/mL, 5 min): 0.1 µM
- (GR)2 concentration ((GR)10 [1]; enzyme 10 μg/mL, 5 min): 0.1 µM
- (GR)4 concentration ((GR)10 [1]; enzyme 10 μg/mL, 5 min): 0.2 µM
- (GR)6 concentration ((GR)10 [1]; enzyme 10 μg/mL, 5 min): BLQ
- (GR)8 concentration ((GR)10 [1]; enzyme 10 μg/mL, 5 min): BLQ
- (GR)10 concentration ((GR)10 [1]; enzyme 10 μg/mL, 5 min): 54.8 µM
- (GR)1 concentration ((GR)10 [1]; enzyme 10 μg/mL, 10 min): 0.1 µM
- (GR)2 concentration ((GR)10 [1]; enzyme 10 μg/mL, 10 min): 0.1 µM
- (GR)4 concentration ((GR)10 [1]; enzyme 10 μg/mL, 10 min): 0.2 µM
- (GR)6 concentration ((GR)10 [1]; enzyme 10 μg/mL, 10 min): 0.1 µM
- (GR)8 concentration ((GR)10 [1]; enzyme 10 μg/mL, 10 min): 1.0 µM
- (GR)10 concentration ((GR)10 [1]; enzyme 10 μg/mL, 10 min): 59.4 µM
- (GR)1 concentration ((GR)10 [1]; enzyme 10 μg/mL, 30 min): 0.3 µM
- (GR)2 concentration ((GR)10 [1]; enzyme 10 μg/mL, 30 min): 0.4 µM
- (GR)4 concentration ((GR)10 [1]; enzyme 10 μg/mL, 30 min): 0.4 µM
- (GR)6 concentration ((GR)10 [1]; enzyme 10 μg/mL, 30 min): 0.4 µM
- (GR)8 concentration ((GR)10 [1]; enzyme 10 μg/mL, 30 min): 1.3 µM
- (GR)10 concentration ((GR)10 [1]; enzyme 10 μg/mL, 30 min): 48.6 µM
- (GR)1 concentration ((GR)10 [1]; enzyme 10 μg/mL, 60 min): 0.5 µM
- (GR)2 concentration ((GR)10 [1]; enzyme 10 μg/mL, 60 min): 0.6 µM
- (GR)4 concentration ((GR)10 [1]; enzyme 10 μg/mL, 60 min): 0.8 µM
- (GR)6 concentration ((GR)10 [1]; enzyme 10 μg/mL, 60 min): 0.5 µM
- (GR)8 concentration ((GR)10 [1]; enzyme 10 μg/mL, 60 min): 2.4 µM
- (GR)10 concentration ((GR)10 [1]; enzyme 10 μg/mL, 60 min): 55.2 µM
- (GR)1 concentration ((GR)10 [1]; enzyme 10 μg/mL, 120 min): 1.1 µM
- (GR)2 concentration ((GR)10 [1]; enzyme 10 μg/mL, 120 min): 1.4 µM
- (GR)4 concentration ((GR)10 [1]; enzyme 10 μg/mL, 120 min): 1.6 µM
- (GR)6 concentration ((GR)10 [1]; enzyme 10 μg/mL, 120 min): 1.3 µM
- (GR)8 concentration ((GR)10 [1]; enzyme 10 μg/mL, 120 min): 3.0 µM
- (GR)10 concentration ((GR)10 [1]; enzyme 10 μg/mL, 120 min): 48.7 µM
Substance: Thrombin

Substance: agarose resin having immobilized elastase: elastase immobilized in-house on agarose resin
- Effect of protease treatment of (GR)10 on (GR)10 toxicity (iCell® motor neurons): abrogation of (GR)10 toxicity
- (GR)10 proteolytic activity after storage at 4° C. for over 2 months ((GR)10 [2]): did not exhibit substantial (GR)10 proteolytic activity
